Data published in patent publication US20150031656A1, “COMBINATION THERAPY FOR TREATING ANDROGEN DEFICIENCY” (REPROS THERAPEUTICS INC., priority 2012, published 2015).
Like-named read-outs stand apart in the source and are kept apart here.

Assays:
[1] = system: testosterone; conditions: for 24 hr T <300 ng/dl @ Week 6 / Any T >1100 ng/dl @ Week 6: number of men
Description: Sixty men with testosterone levels not exceeding 350 ng/dl were enrolled in the study and randomized to one of four parallel arms: (i) 6.25 mg Androxal (ii) 12.5 mg Androxal (iii) 25 mg Androxal or (iv) Androgel. The average age of men in the study was 53.1 (10.1) and their average body mass index (BMI) was 31.8 (6.1). The men were dosed for 6 weeks and then followed for an additional 7 days after cessation of treatment. Subjects in all arms visited the clinic every 2 weeks for assessments. Twenty-four hour assessments were made at baseline before dosing commenced and after 6 weeks of treatment, at which point testosterone and LH were assessed hourly.

[2] = Androxal vs Androgel in hypogonadal men: side effects; conditions: two week exposure
Description: (§1) Half of the men in each of the Androxal™ and placebo arms were randomized into cohorts that underwent in-clinic sessions on days 1 and 14 to determine pharmacokinetic parameters for Androxal™ as well as cyclical changes in testosterone. The placebo and Androxal™ doses were administered in a double blind fashion. […] Following the two week drug exposure patients were followed for an additional seven to ten days to determine the status of their testosterone levels.

[3] = system: LH and FSH; assay: Androxal vs Testim, 6 month spermatogenesis trial: LH and FSH; format: in vivo, human; conditions: secondary hypogonadal men, 3 and 6 months of therapy
Description: (§2) The mean age of the subjects was 46 years and mean body weight was 233 pounds. […] Subjects were required to discontinue topical exogenous testosterone for at least 30 days prior to receiving study medication. Effects of the treatment on sperm parameters associated with fertility as well as on FSH and LH levels were evaluated following 3 and 6 months of therapy and one month after cessation of treatment. Semen analysis included semen volume, total sperm count, sperm concentration, percent motility and percent normal morphology. There were 6 laboratory visits including a screening (V1), baseline (V2) and post first dose visits at 1 month (V3), 3 months (V4) and 6 months (V5) as well as a one month post therapy follow-up visit (V6).

[4] = system: serum dihydroxytestosterone (DHT); assay: Androxal vs Androgel in hypogonadal men: DHT to total testosterone ratio; format: in vivo, human; conditions: men on Androxal 50 mg; placebo group ratio 1.07
Description: as §1

[5] = system: total testosterone; assay: Placebo controlled study of Androxal vs Androgel in hypogonadal men: testosterone; format: in vivo, human; conditions: for mean increase in testosterone from baseline: oral, two weeks
Description: as §1

[6] = Androxal vs Testim, 6 month spermatogenesis trial: tolerability; format: in vivo, human; conditions: 6 months of drug therapy
Description: as §2

[7] = system: sperm counts; assay: Androxal vs Testim, three month trial: sperm counts; format: in vivo, human
Description: (§3) Over 900 men were screened to achieve a total of 108 men who met all criteria and were enrolled in the study. All 108 men enrolled in the study satisfied the requirement of at least one dose and one visit in which efficacy measures could be assessed. The subjects were randomized into four groups: (i) placebo; (ii) 12.5 mg Androxal; (iii) 25 mg Androxal; and (iv) Testim. There was no statistical difference among the groups in testosterone at baseline.
Sperm counts were assessed at baseline and after dosing was completed. Spermatogenesis is approximately a 64 day cycle and detection of early changes after 3 months of treatment would be expected. At baseline, the median values of all four arms were above the generally accepted lower level of sperm counts for normal males (20 million sperm per ml). […] The median sperm count for the men in the combined Androxal arms was 93.8 million sperm/ml (p value=0.001 compared to Testim). […] No drug related serious adverse effects occurred that led to discontinuation.

[8] = Androxal vs Testim, three month trial: tolerability; format: in vivo, human; conditions: both doses (12.5 and 25 mg), three months
Description: as §3

[9] = system: serum LH; assay: Androxal vs Androgel in hypogonadal men: serum LH; format: in vivo, human
Description: as §1

[10] = system: triglycerides; assay: Androxal vs Androgel in hypogonadal men: triglycerides; format: in vivo, human; conditions: men on Androxal, non-dose dependent, after two weeks of therapy
Description: as §1

[11] = system: morning testosterone; assay: Androxal vs Testim, three month placebo-controlled trial: morning testosterone; format: in vivo, human; conditions: for Median Morning Testosterone, Baseline T: before dosing; for Median Morning Testosterone, Baseline T / Median Morning Testosterone, Final T: no unit in table; for Median Morning Testosterone, Final T: end of three month dosing
Description: as §3

[12] = system: serum FSH; assay: Androxal vs Androgel in hypogonadal men: serum FSH; format: in vivo, human; conditions: two weeks treatment and follow-up
Description: as §1

[13] = system: serum testosterone; assay: Androxal vs Testim, 6 month spermatogenesis trial: serum testosterone; format: in vivo, human; conditions: after 3 months of treatment, sustained for another 3 months
Description: as §2

[14] = three month dosing, Androxal arms combined, Testim arm

With `CCN(CC)CCOc1ccc(/C(=C(\Cl)c2ccccc2)c2ccccc2)cc1` [Androxal™, trans-clomiphene] the “24 hr T <300 ng/dl @ Week 6” value ([1]; Androxal 6.25 mg) was 4 out of 12, the “Any T >1100 ng/dl @ Week 6” value ([1]; Androxal 6.25 mg) was 0 out of 12 and the “24 hr T <300 ng/dl @ Week 6” value ([1]; Androxal 12.5 mg) was 2 out of 10. For the same compound, the “Any T >1100 ng/dl @ Week 6” value ([1]; Androxal 12.5 mg) was 0 out of 10, the “24 hr T <300 ng/dl @ Week 6” value ([1]; Androxal 25 mg) was 0 out of 13 and the “Any T >1100 ng/dl @ Week 6” value ([1]; Androxal 25 mg) was 0 out of 13. For the same compound, the “morning testosterone after the seven day follow-up (in words)” value ([1]; all Androxal arms (6.25, 12.5, 25 mg)) was “improved morning testosterone compared to baseline”, the “side effects different than placebo” value [2] was “no side effects noted” and the “LH and FSH levels” value [3] was “significantly increased both LH and FSH”. The DHT/TT ratio [4] was 0.83, the “serum total testosterone in the follow-up period” value ([5]; 7-10 days after cessation of daily oral treatment) was “unexpectedly remained high” and the mean total testosterone ([5]; hypogonadal men, Androxal 50 mg, after 15 days) was 589 ± 172 ng/dL. For the same compound, the “mean increase in testosterone from baseline” value (“mean increase in testosterone” for short) ([5]; hypogonadal men, Androxal high dose (50 mg)) was 294 ng/dL, the “mean increase in testosterone” value ([5]; hypogonadal men, Androxal low dose (12.5 mg)) was 169 ng/dL and the “mean increase in testosterone” value ([5]; hypogonadal men, Androxal mid dose (25 mg)) was 247 ng/dL. The tolerability [6] was “well tolerated by all subjects”, the “change in sperm counts from baseline (in words)” value ([7]; end of the three month dosing period) was “no statistically significant changes” and the median sperm count ([7]; end of three month dosing, Androxal arms combined, Testim arm) was 93.8 million sperm/ml. For the same compound, the “tolerability compared to placebo” value [8] was “generally well tolerated”, the “serum LH in the follow-up period” value ([9]; 7-10 days after cessation of treatment) was “remained high” and the “serum levels of LH during treatment” value ([9]; hypogonadal men, two weeks treatment) was “statistically significant increase”. The “reduction in triglycerides, average” value [10] was 19.1%, the “Median Morning Testosterone, Baseline T” value ([11]; Androxal 12.5 mg (n = 26), text uses ng/dl) was 202 and the “Median Morning Testosterone, Final T” value ([11]; Androxal 12.5 mg (n = 26)) was 432. The “Median Morning Testosterone, Baseline T” value ([11]; Androxal 25 mg (n = 30)) was 202, the “Median Morning Testosterone, Final T” value ([11]; Androxal 25 mg (n = 30)) was 416 and the “men exceeding the normal maximum level of testosterone (1100 ng/dl)” value [11, 14] was “no men”. For the same compound, the “men in the normal range for morning testosterone levels (300-1100 ng/dl)” value [11, 14] was 69.9%, the “serum levels of FSH” value [12] was “boosts serum FSH which remains high during the follow-up period” and the mean serum testosterone [13] was “statistically significant rise”.
